Reference: patent US8597700B2, “Method of treating osteoporosis with extract of Dioscorea sp” (National Yang-Ming University, priority 2002, dated 2013)
Marks after values point to notes of the source that are not given here.

What was measured:
osteoprogenitor cells = assay: Proliferative response of osteoprogenitor cells of mice (MTT assay); assay type: cell-based, C3H/HeN mice; details: 0.01 and 0.1 μg/ml, 72 hours
Method: Under sterile conditions, femoral bones of the SPF grade of C3H/HeN mouse were obtained and injected with DMEM/F12. The bone marrow cells were flushed out and filtered through No. 53 sterile nylon mesh. The single cell suspension obtained was mixed with DMEM/F12 culture medium containing 15% FCS to adjust the concentration of the cells.
The cells were cultured in DMEM/F12 medium containing 15% FCS, 50 μg/ml ascorbic acid, 10 mM sodium β glycerophosphate and 10 nM dexamethasone in a T-flask for 6 days. The culture medium was renewed every 3 days. The cell concentration was 10^6 cells/cm^2. On the 6th day, the suspended cells and culture medium were drawn out. The adhering cell layer was washed with 1×PBS that had been warmed to room temperature, and then treated with 0.01% EDTA at 37° C. for 5 to 10 minutes. […]
The cells obtained in preparatory step 4 were dispersed using a 22 G gauge needle and suspended in DMEM/F12 medium containing 15% FCS, 50 μg/ml ascorbic acid, 10 mM sodium β-glycerophosphate and 10 nM dexamethazone to form a concentration of 4.5×10^4 cells/ml. […] 1 mg/ml MTT solution was added in each well and reacted for 4 hours MTT lysis buffer (20% SDS-50% DMF) was added in each well in the amount of 150 μl/well and reacted for 16 hours, and the absorbance was measured at O.D. 570 nm for the resultant cell suspension in each well.

[1] = system: bone marrow cells of C3H mice; assay: Proliferation (MTT) and morphological changes of bone marrow cells in the presence of EGF; assay type: cell-based, C3H/HeN mice
Method: (§1) Under sterile conditions, SPF grade C3H/HeN mice were sacrificed and their femoral bones were injected with a liquid culture of DMEM/F12 to flush out the bone marrow cells. The cells were filtered through sterile No. 53 nylon mesh. The single cell suspension so obtained was mixed with DMEM/F12 culture medium containing N2 to adjust to the proper concentration.
1×10^4 cells/well bone marrow cells of mice obtained in preparatory step 3 were seeded in a 96-well microplate containing DMEM/F12 culture medium with N2 and 10 ng/ml EGF and incubated in a 5% CO2 incubator at 37° C for 24 hrs. The extract and DHEA were added into different wells respectively. Wells containing pure culture medium into which no methanol extract and DHEA were added, and which were subjected to the same incubation procedure, were used as […]. In addition, for use as positive control, the same procedure as that for control was repeated except that 50 ng/ml EGF was used. The proliferation responses were measured by a MTT assay. In accordance with the MTT assay, each of the wells was added with 1 mg/ml MTT solution and, after 4 hours of reaction, MTT lysis buffer (20% SDS-50% DMF) was added thereinto in an amount of 150 μl/well. The resultant mixture was allowed to be reacted for 16 hours. The absorbance was measured at O.D. 570 nm.

[2] = system: bone marrow cells of mice; assay: Proliferation (MTT) and morphologic change of bone marrow cells in the presence of GM-CSF; assay type: cell-based
Method: as §1
1×10^4 cells/well bone marrow cells of mice obtained in preparatory step 3 were seeded in each well of the 96-well microplate, cultured in DMEM/F 12 culture medium containing N2, and 4 ng/ml mGM-CSF. Methanol extracts of Dioscorea sp. with different concentrations were respectively added into the resultant cultured cells in the different wells. The resultant methanol extract containing cultured cells in different wells were then incubated in a 5% CO2 incubator at 37° C. for 14 days. The cells cultured in DMEM/F12 medium containing N2 and 20 ng/ml mGM-CSF is used as positive control. A MTT assay was performed. In this respect, 1 mg/ml MTT solution was added in each well so as to react with the cultured cells therein for 4 hours. MTT lysis buffer (20% SDS-50% DMF) was added in a n amount of 150 μl/well. The resultant mixture was allowed to react for 16 hours. The absorbance was measured at O.D. 570 nm.

C[C@]12CC[C@H](O)CC1=CC[C@@H]1[C@@H]2CC[C@]2(C)C(=O)CC[C@@H]12 [DHEA, Dehydroepiandrosterone]
proliferation of the osteoprogenitor cells (osteoprogenitor cells): no effect | Proliferation Index ([1]; 0.0001 μg/ml): 0.99 | Proliferation Index ([1]; 0.001 μg/ml): 0.64 | Proliferation Index ([1]; 0.01 μg/ml): 0.65 | Proliferation Index ([1]; 0.1 μg/ml): 0.67 | Proliferation Index ([1]; 1 μg/ml): 0.70 | Proliferation Index ([2]; 0.0001 μg/ml): 0.99 | Proliferation Index ([2]; 0.001 μg/ml): 1.15 | Proliferation Index ([2]; 0.01 μg/ml): 1.04 | Proliferation Index ([2]; 0.1 μg/ml): 1.13 | Proliferation Index ([2]; 1 μg/ml): 1.11 | Proliferation Index ([2]; 10 μg/ml): 1.19* | differentiation of bone marrow cells ([2]; 20-week old adult mouse bone marrow cells): enhancing cell differentiation
